From patent US20240254138A1, “TRICYCLIC PYRIMIDINES AS CYCLIN-DEPENDENT KINASE 7 (CDK7) INHIBITORS” (JANSSEN PHARMACEUTICA NV, priority 2021, published 2024) come the findings set out here.

Where two headings read alike, the source gives them in different places.

Assay [1] concerns RNA Polymerase II Serine 5 phosphorylation (Rpb1 CTD, downstream substrate of CDK7) in A549 cells. Kind of assay: Imaging-based cellular RNA PolII Ser5 phosphorylation assay in A549 cells. Type of assay: cell-based, human. The conditions noted are these: wild-type CDK7, RNA PolII Ser5 phosphorylation, averaged over all measurements; for IC50: Homo sapiens, A549, A549 cells, read-out: CDK7_A549 Wild-type CDK7 (pIC50) (converted). In short, it runs like this:
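IC50 derived by fitting % control (DMSO high, 10 μM reference low) against concentration, with Hill slope. Readout: high-content imaging of phospho-Ser5 Rpb1 CTD antibody staining in fixed, permeabilized A549 cells exposed to compound 3 h after 20 h culture in 1% FBS DMEM.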

The subject of assay [2] is RNA Polymerase II Serine 5 phosphorylation in A549 cells overexpressing CDK7-mutant (C312S). Kind of assay: Imaging-based cellular RNA PolII Ser5 phosphorylation assay in A549 cells overexpressing CDK7-mutant (C312S). Type of assay: cell-based, human. The conditions noted are these: RNA PolII Ser5 phosphorylation, averaged over all measurements; for IC50: Homo sapiens, A549, A549 cells overexpressing CDK7-mutant (C312S), read-out: CDK7_A549 mutant hCDK7(pIC50) (converted). In short, it runs like this: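 Readout was automated imaging of anti-phospho-Ser5 Rpb1 CTD immunofluorescence, with IC50 fitted to % control versus concentration. Cells were A549 stably overexpressing non-covalently targetable CDK7 C312S alongside wild-type, exposed to compound 3 h at 37 °C. DMSO and 10 μM reference compound served as controls.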

Assay [3] concerns the target CDK7/cyclinH/MAT1 trimeric complex (Homo sapiens, UniProt P50613). Kind of assay: In vitro CDK7 assay, potency of irreversible covalent inhibitors (kinact/KI), coupled PK/LDH ADP readout at 340 nm. The conditions noted are these: for Ki: CDK7 (20 nM enz.) (KI, μM), 20 nM enzyme; for kinact: read-out: CDK7 (20 nM enz.) (kinact, s^−1), 20 nM enzyme.
Where [4] appears, read: read-out: CDK7 (20 nM enz.) (kobs/[I], M^−1*s^−1), 20 nM enzyme.
[5] abbreviates: read-out: CDK7 (20 nM enz.) (kinact/KI, M^−1*s^−1), 20 nM enzyme.

Sequence of CDK7/cyclinH/MAT1 trimeric complex (P50613 whole entry): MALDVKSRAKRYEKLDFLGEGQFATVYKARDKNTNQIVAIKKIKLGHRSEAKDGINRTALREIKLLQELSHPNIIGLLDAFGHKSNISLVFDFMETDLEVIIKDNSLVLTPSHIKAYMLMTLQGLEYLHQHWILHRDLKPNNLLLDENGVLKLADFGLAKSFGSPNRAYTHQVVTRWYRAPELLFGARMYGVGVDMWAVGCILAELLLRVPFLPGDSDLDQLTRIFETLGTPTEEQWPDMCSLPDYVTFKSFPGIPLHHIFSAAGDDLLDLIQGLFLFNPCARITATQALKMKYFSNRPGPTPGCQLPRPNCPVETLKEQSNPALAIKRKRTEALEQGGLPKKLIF
Sequence of CDK7/cyclinH/MAT1 trimeric complex (P51946 whole entry partner): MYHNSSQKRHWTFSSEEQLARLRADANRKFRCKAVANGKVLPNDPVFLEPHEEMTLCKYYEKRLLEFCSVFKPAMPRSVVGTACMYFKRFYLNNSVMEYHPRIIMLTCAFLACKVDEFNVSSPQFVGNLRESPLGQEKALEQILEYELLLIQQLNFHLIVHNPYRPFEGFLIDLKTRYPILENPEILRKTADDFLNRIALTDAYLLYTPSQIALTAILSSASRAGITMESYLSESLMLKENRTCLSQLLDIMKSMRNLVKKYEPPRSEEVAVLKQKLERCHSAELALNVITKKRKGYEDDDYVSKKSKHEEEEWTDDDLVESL
Sequence of CDK7/cyclinH/MAT1 trimeric complex (P51948 whole entry partner): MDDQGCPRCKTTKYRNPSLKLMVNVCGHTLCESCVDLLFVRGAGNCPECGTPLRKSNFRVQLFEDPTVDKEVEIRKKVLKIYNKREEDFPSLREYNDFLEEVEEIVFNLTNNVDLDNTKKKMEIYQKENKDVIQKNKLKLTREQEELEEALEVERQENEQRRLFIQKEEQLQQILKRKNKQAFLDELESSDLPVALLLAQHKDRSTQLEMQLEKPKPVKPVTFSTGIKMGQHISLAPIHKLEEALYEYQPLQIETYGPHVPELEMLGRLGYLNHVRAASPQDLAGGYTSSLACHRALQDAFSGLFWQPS

Turning to `C=CC(=O)N1CC[C@@H](N2CCC(c3cc(C)c4c(c3)Nc3nccc(-c5cnn(C)c5)c3CO4)CC2)C1` (single isomer, unassigned) [Compound 134], the IC50 was 38 nM in assay [1] and around 8710 nM in assay [2]. Moreover, the kinact/KI in assay [3] (setting [4]) was 1530 M⁻¹ s⁻¹.

For the compound `C=CC(=O)N1CC[C@H](N2CCC(c3cc(C)c4c(c3)Nc3nccc(-c5cnn(C)c5)c3CO4)CC2)C1` (single isomer, unassigned) [Compound 138], the IC50 in assay [1] is 28.8 nM; in assay [2], around 3720 nM. Also, the kinact/KI in assay [3] (setting [4]) amounted to 1330 M⁻¹ s⁻¹.

Turning to `C=CC(=O)N1CC(N2CCC[C@@H](c3ccc4c(c3)Nc3nccc(N5CCOCC5)c3CO4)C2)C1` (single isomer, unassigned) [Compound 145], the IC50 in assay [1] was 977 nM. Further, the IC50 in assay [2] was above 10000 nM. For the same compound, in assay [3], the Ki was 0.872 µM and the kinact was determined as 7.9e-05 s⁻¹. Also, in assay [3] (setting [5]), the kinact/KI amounted to 90.6 M⁻¹ s⁻¹.

On to `C=CC(=O)N1CC[C@@H](N2CC(c3cc(C)c4c(c3)Nc3nccc(N5CCOCC5)c3CO4)C2)C1` (single isomer, unassigned) [Compound 149], for which the IC50 in assay [1] was 50.1 nM. For the same compound, in assay [2], the IC50 is above 10000 nM. For the same compound, in assay [3], the Ki was determined as 0.0542 µM and the kinact is 6.66e-05 s⁻¹. Moreover, the kinact/KI in assay [3] (setting [5]) came to 1230 M⁻¹ s⁻¹.

As for `C=CC(=O)N1CC[C@H](N2CC(c3cc(C)c4c(c3)Nc3nccc(N5CCOCC5)c3CO4)C2)C1` (single isomer, unassigned) [Compound 150], the IC50 in assay [1] is 46.8 nM. Also, the IC50 in assay [2] is 6030 nM. Also, in assay [3], the Ki was 0.0526 µM and the kinact is 8.76e-05 s⁻¹. In addition, in assay [3] (setting [5]), the kinact/KI was found to be 1660 M⁻¹ s⁻¹.

In the case of `C=CC(=O)N1CCC(N2CC(c3cc(F)c4c(c3)Nc3nccc(C5CCOCC5)c3[C@@H](C)O4)C2)CC1` (single isomer, unassigned) [Compound 153], the IC50 in assay [1] is 18.6 nM. Further, in assay [2], the IC50 is 5750 nM. In addition, in assay [3], the Ki was 0.0288 µM and the kinact amounted to 3.67e-05 s⁻¹. Further, the kinact/KI in assay [3] (setting [5]) worked out at 1280 M⁻¹ s⁻¹.

`C=CC(=O)N1CCC(N2CC(c3cc(F)c4c(c3)Nc3nccc(C5CCOCC5)c3[C@H](C)O4)C2)CC1` (single isomer, unassigned) [Compound 155]: the IC50 in assay [1] is 501 nM. Moreover, the IC50 in assay [2] is above 10000 nM. Besides, in assay [3], the Ki is 2.09 µM and the kinact was 4.59e-05 s⁻¹. Moreover, the kinact/KI in assay [3] (setting [5]) is 22 M⁻¹ s⁻¹.

With `C=CC(=O)N1CC[C@H](N2CCC(c3cc4c(c(C)n3)OCc3c(N5CCOCC5)ccnc3N4)CC2)C1` (single isomer, unassigned) [Compound 183], in assay [1], the IC50 was 56.2 nM. Besides, the IC50 in assay [2] is above 10000 nM. Further, in assay [3], the Ki is 0.0731 µM and the kinact came out at 5.78e-05 s⁻¹. Also, in assay [3] (setting [5]), the kinact/KI came out at 791 M⁻¹ s⁻¹.

Consider `C=CC(=O)N1CC[C@@H](N2CCC(c3cc4c(c(C)n3)OCc3c(N5CCOCC5)ccnc3N4)CC2)C1` (single isomer, unassigned) [Compound 184], for which the IC50 in assay [1] was 32.4 nM. Also, the IC50 in assay [2] was above 10000 nM. In assay [3], the Ki was 0.0446 µM and the kinact worked out at 6.03e-05 s⁻¹. The kinact/KI in assay [3] (setting [5]) turned out to be 1350 M⁻¹ s⁻¹.

Consider `C#CCCN(C)C/C=C/C(=O)N1CC(N2CCC(c3ccc4c(c3)Nc3nccc(N5CCOCC5)c3[C@@H](C)O4)CC2)C1` (single isomer, unassigned) [Compound 191], for which the IC50 in assay [1] was 4370 nM; in assay [2] it was above 10000 nM. Also, the Ki in assay [3] amounted to 3.09 µM. The kinact in assay [3] came to 4.72e-05 s⁻¹. Also, the kinact/KI in assay [3] (setting [5]) came to 15.3 M⁻¹ s⁻¹.

On to `C=CC(=O)N1CC[C@H](N2CC(c3cc(C)c4c(c3)Nc3nccc(-c5cnn(C)c5)c3CO4)C2)C1` (single isomer, unassigned) [Compound 192], for which the IC50 in assay [1] is 79.4 nM. Besides, the IC50 in assay [2] was above 10000 nM. In addition, in assay [3], the Ki was determined as 0.0907 µM and the kinact was 4.14e-05 s⁻¹. Further, the kinact/KI in assay [3] (setting [5]) was 456 M⁻¹ s⁻¹.

In the case of `C=CC(=O)N1CC[C@H](N2CC(c3cc(C)c4c(c3)Nc3nccc(C5CCOCC5)c3CO4)C2)C1` (single isomer, unassigned) [Compound 193], the IC50 is 69.2 nM in assay [1] and above 10000 nM in assay [2]. In assay [3], this compound yielded a Ki of 0.063 µM. Moreover, in assay [3], the kinact was determined as 3.66e-05 s⁻¹. Also, in assay [3] (setting [5]), the kinact/KI was 581 M⁻¹ s⁻¹.

On to `C=CC(=O)N1CC[C@@H](N2CC(c3cc(C)c4c(c3)Nc3nccc(-c5cnn(C)c5)c3CO4)C2)C1` (single isomer, unassigned) [Compound 194], for which, in assay [1], the IC50 is 58.9 nM. In assay [2], the IC50 was above 10000 nM. Moreover, in assay [3], the Ki came to 0.0892 µM and the kinact amounted to 4.72e-05 s⁻¹. Moreover, in assay [3] (setting [5]), the kinact/KI was 530 M⁻¹ s⁻¹.

With `C=CC(=O)N1CC[C@@H](N2CC(c3cc(C)c4c(c3)Nc3nccc(C5CCOCC5)c3CO4)C2)C1` (single isomer, unassigned) [Compound 196], the IC50 in assay [1] is 105 nM; in assay [2], above 3980 nM. This compound showed a Ki in assay [3] of 0.0924 µM. In assay [3], the kinact was determined as 4.58e-05 s⁻¹. Besides, the kinact/KI in assay [3] (setting [5]) was determined as 496 M⁻¹ s⁻¹.

With `C=CC(=O)N1CC[C@H](N2CC(c3cc4c(c(C)n3)OCc3c(-c5cnn(C)c5)ccnc3N4)C2)C1` (single isomer, unassigned) [Compound 199], the IC50 was 288 nM in assay [1] and above 10000 nM in assay [2]. Further, in assay [3], the Ki turned out to be 0.449 µM. In addition, the kinact in assay [3] turned out to be 3.63e-05 s⁻¹. In addition, the kinact/KI in assay [3] (setting [5]) stood at 80.8 M⁻¹ s⁻¹.

`C=CC(=O)N1CC[C@@H](N2CC(c3cc4c(c(C)n3)OCc3c(-c5cnn(C)c5)ccnc3N4)C2)C1` (single isomer, unassigned) [Compound 204]: the IC50 in assay [1] is 339 nM. The IC50 in assay [2] was above 10000 nM. In assay [3], the Ki came to 0.352 µM and the kinact stood at 3.71e-05 s⁻¹. In assay [3] (setting [5]), the kinact/KI was found to be 105 M⁻¹ s⁻¹.

In the case of `C#Cc1cc2c(cc1C1CCN(C3CN(C(=O)C=C)C3)CC1)Nc1nccc(N3CCOCC3)c1[C@@H](C)O2` (single isomer, unassigned) [Compound 211], the “CDK7_A549 Wild-type CDK7 (pIC50)” value in assay [1] (A549 cells) is around 5. For the same compound, in assay [2] (A549 cells overexpressing CDK7-mutant (C312S)), the “CDK7_A549 mutant hCDK7(pIC50)” value was below 5. Further, in assay [3], the Ki is 7.29 µM and the kinact came to 7.18e-05 s⁻¹. Also, in assay [3] (setting [5]), the kinact/KI is 9.85 M⁻¹ s⁻¹.

Take `C=CC(=O)N1CC(N2CCO[C@H](c3cc(C)c4c(c3)Nc3nccc(C5CCOCC5)c3CO4)CC2)C1` (single isomer, unassigned) [Compound 219]: in assay [1], the IC50 was 200 nM. Besides, in assay [2], the IC50 is above 10000 nM. In assay [3], the Ki came to 0.311 µM and the kinact stood at 6.39e-05 s⁻¹. In addition, the kinact/KI in assay [3] (setting [5]) is 206 M⁻¹ s⁻¹.

Turning to `C=CC(=O)N1CC(N2CCO[C@@H](c3cc(C)c4c(c3)Nc3nccc(C5CCOCC5)c3CO4)CC2)C1` (single isomer, unassigned) [Compound 221], the IC50 in assay [1] was 282 nM. Further, the IC50 in assay [2] is above 10000 nM. In addition, in assay [3], the Ki worked out at 0.512 µM and the kinact was found to be 7.79e-05 s⁻¹. Also, in assay [3] (setting [5]), the kinact/KI turned out to be 152 M⁻¹ s⁻¹.

Turning to `C=CC(=O)N1CC(N2CC[C@H](c3cc4c(c(C)n3)O[C@H](C)c3c(N5CCOCC5)ccnc3N4)C2)C1` (single isomer, unassigned) [Compound 224], the IC50 in assay [1] is 3980 nM; in assay [2] it was above 10000 nM. Further, in assay [3] (setting [5]), the kinact/KI was 3 M⁻¹ s⁻¹.

For the compound `C=CC(=O)N1CC[C@@H](N2CC(c3cc(C)c4c(c3)Nc3nccc(N5CCOCC5)c3[C@H](C)O4)C2)C1` (single isomer, unassigned) [Compound 227], the IC50 was 724 nM in assay [1] and above 10000 nM in assay [2]. Further, the Ki in assay [3] turned out to be 3.01 µM. The kinact in assay [3] amounted to 6.83e-05 s⁻¹. Further, the kinact/KI in assay [3] (setting [5]) was 22.7 M⁻¹ s⁻¹.

The kinact is the maximal first-order rate at which the target is inactivated.
